According to patent publication US20230065953A1, “NOVEL HETEROARYL-TRIAZOLE COMPOUNDS AS PESTICIDES” (Bayer Aktiengesellschaft, priority 2019, published 2023):

Legend:
Assay type in all cases: in vivo
[1] = system: larvae of the southern green stink bug (Nezara viridula); experiment: Nezara viridula spray test; conditions: in Hordeum vulgare, 96 h
Protocol: Nezara viridula—Spray Test • Solvent: 78.0 parts by weight of acetone • 1.5 parts by weight of dimethylformamide • Emulsifier: alkylarylpolyglycol ether
(§1) To produce a suitable preparation of active compound, 1 part by weight of active compound is mixed with the stated amount of solvent, and the concentrate is diluted with water, containing an emulsifier concentration of 1000 ppm, to the desired concentration. Further test concentrations are prepared by dilution with emulsifier containing water.
Barley plants (Hordeum vulgare) are sprayed with a test solution containing the desired concentration of the active ingredient and are infested with larvae of the southern green stink bug (Nezara viridula).
After 4 days mortality in % is determined. 100% means all the stink bugs have been killed; 0% means none of the stink bugs have been killed.

[2] = system: fall armyworm larvae (Spodoptera frugiperda); experiment: Spodoptera frugiperda spray test (maize leaf sections); conditions: 168 h
Protocol: Spodoptera frugiperda—Spray Test • Solvent: 78.0 parts by weight acetone • 1.5 parts by weight dimethylformamide • Emulsifier: alkylarylpolyglycol ether
as §1, with “solvents” for “solvent,”, “and” for “and the concentrate”
Maize (Zea mays) leaf sections are sprayed with a preparation of the active ingredient of the desired concentration. Once dry, the leaf sections are infested with fall armyworm larvae (Spodoptera frugiperda).
After 7 days mortality in % is determined. 100% means all caterpillars have been killed and 0% means none of the caterpillars have been killed.

[3] = system: larvae of the banded cucumber beetle (Diabrotica balteata); experiment: Diabrotica balteata spray test; conditions: 168 h, 100 g/ha (=32 μg/well), wheat seeds, after 7 days, read-out: efficacy (seedling growth)
Protocol: Diabrotica Balteata—Spray Test
• Solvent: 78.0 parts by weight of acetone • 1.5 parts by weight of dimethylformamide • Emulsifier: alkylarylpolyglycol ether
Further test concentrations are prepared by dilution with emulsifier containing water.
Soaked wheat seeds (Triticum aestivum) are placed in a multiple well plate filled with agar and some water and are incubated for 1 day to germinate (5 seeds per well). The germinated wheat seeds are sprayed with a test solution containing the desired concentration of the active ingredient. Afterwards each unit is infected with 10-20 larvae of the banded cucumber beetle (Diabrotica balteata).
After 7 days efficacy in % is determined.

[4] = system: green peach aphid (Myzus persicae); experiment: Myzus persicae spray test; conditions: foliar, 120 h, Chinese cabbage leaf disks, after 5 days
Protocol: Myzus persicae—Spray Test • Solvent: 78.0 parts by weight acetone • 1.5 parts by weight dimethylformamide • Emulsifier: alkylarylpolyglycol ether
as §1, with “solvents” for “solvent,”, “and” for “and the concentrate”
Chinese cabbage (Brassica pekinensis) leaf disks infected with all instars of the green peach aphid (Myzus persicae), are sprayed with a preparation of the active ingredient of the desired concentration.
After 5 days mortality in % is determined. 100% means all aphids have been killed and 0% means none of the aphids have been killed.

[5] = system: Rhipicephalus microplus larvae (strain Parkhurst, resistant against synthetic pyrethroids); experiment: Rhipicephalus (Boophilus) microplus in-vitro contact test, larval cattle tick; conditions: 5 μg/cm^2 (=500 g/ha), after 48 hours, read-out: efficacy (larvae dead or moribund)
Protocol: Rhipicephalus (Boophilus) Microplus—In-Vitro Contact Tests Larval Cattle Tick (Strain Parkhurst, Resistant Against Synthetic Pyrethroids)
9 mg compound is solved in 1 mL acetone and diluted with acetone to the desired concentration. 250 μL of the test solution is filled in 25 mL glass test tubes and homogeneously distributed on the inner walls by rotation and tilting on a shaking device (2 h at 30 rpm). With a compound concentration of 900 ppm, an inner surface of 44.7 cm^2 and a homogeneous distribution, a dose of 5 μg/cm^2 is achieved.
After the solvent has evaporated, each test tube is filled with 20-50 cattle tick larvae (Rhipicephalus microplus), closed with a perforated lid and incubated in a horizontal position at 85% relative humidity and 27° C. in an incubator. After 48 hours efficacy is determined. The larvae are patted on the ground of the tubes and negative geotactic behavior is recorded.
An efficacy of 100% means all larvae are dead or moribund; 0% means no larvae are dead or moribund.

Row | SMILES | mortality at 500 g/ha [1] | mortality at 100 g/ha [2] | pest or weed control at 32 µg/disc, 100 g/ha [3] | mortality at 100 g/ha [4] | mortality at 100 g/ha [1] | pest or weed control at 5 µg/cm2 [5]
1 | C[C@H](NC(=O)c1cc(OC(F)(F)F)cc(S(=O)(=O)C2CC2)c1)c1nc(C2CC2)nn1-c1ncc(C#N)s1 [I-104] | 90% | 100% | 100% |  |  | 
2 | C[C@H](NC(=O)c1cc(OC(F)(F)F)cc(C2(C#N)CC2)c1)c1nc(C2CC2)nn1-c1ncc(C#N)s1 [I-169] | 100% | 100% | 100% |  |  | 
3 | CNC(=O)c1cnc(-n2ncnc2[C@H](C)NC(=O)c2cc(C(F)F)cc(C(F)F)c2)s1 [I-137] | 100% | 100% | 100% | 90% |  | 
4 | CNC(=O)c1cnc(-n2ncnc2[C@H](C)NC(=O)c2cc(Br)cc(OC(F)(F)F)c2)s1 [I-111] | 100% | 100% | 100% |  |  | 
5 | C[C@H](NC(=O)c1cc(OC(F)F)cc(S(=O)(=O)C2CC2)c1)c1ncnn1-c1ncc(C#N)s1 [I-50] | 100% | 100% |  | 90% | 90% | 
6 | Cc1nc([C@H](C)NC(=O)c2cc(Cl)nc(C(F)(F)F)c2)n(-c2ncc(C(=O)N(C)CC#N)s2)n1 [I-80] |  | 100% | 100% |  |  | 100%
7 | C[C@H](NC(=O)c1cc(Cl)cc(S(=O)(=O)C(F)F)c1)c1ncnn1-c1ncc(C(=O)N(C)C)s1 [I-121] | 100% |  | 100% |  |  | 
8 | C[C@H](NC(=O)c1cc(C(F)(F)F)cc(Cl)n1)c1ncnn1-c1ncc(C#N)s1 [I-166] | 100% | 100% | 100% |  |  | 
9 | Cc1nc([C@H](C)NC(=O)c2cncc(OC(F)(F)F)c2)n(-c2ncc(C#N)s2)n1 [I-175] | 100% |  |  |  |  | 
10 | C[C@H](NC(=O)c1cc(C(F)F)cc(S(=O)(=O)C2CC2)c1)c1nc(C2CC2)nn1-c1ncc(C#N)s1 [I-123] | 100% | 100% | 100% |  |  | 
11 | C[C@H](NC(=O)c1cc(Cl)cc(S(=O)(=O)C(F)F)c1)c1ncnn1-c1ncc(C#N)s1 [I-134] | 100% | 100% | 100% |  |  | 
12 | CNC(=O)c1cnc(-n2nc(C3CC3)nc2[C@H](C)NC(=O)c2cc(OC(F)(F)F)cc(C3CC3)c2)s1 [I-173] | 100% |  | 100% |  |  | 
13 | C[C@H](NC(=O)c1cc(OC(F)F)cc(OC(F)F)c1)c1ncnn1-c1ncc(C(=O)N(C)C2CC2)s1 [I-148] |  | 100% | 100% | 90% |  | 
14 | C[C@H](NC(=O)c1cc(OC(F)F)cc(S(C)(=O)=O)c1)c1ncnn1-c1ncc(C#N)s1 [I-54, N-{(1S)-1-[1-(5-cyano-1,3-thiazol-2-yl)-1H-1,2,4-triazol-5-yl]ethyl}-3-(difluoromethoxy)-5-(methylsulfonyl)benzamide] | 100% | 100% |  |  |  | 
15 | C[C@H](NC(=O)c1cc(OC(F)(F)F)cc(S(=O)(=O)C(F)F)c1)c1ncnn1-c1ncc(C(=O)N(C)C)s1 [I-171] | 100% | 100% | 100% | 100% |  | 
16 | Cc1nc([C@H](C)NC(=O)c2cc(Cl)nc(C(F)(F)F)c2)n(-c2ncc(C(=O)N(C)C)s2)n1 [I-77] |  | 100% | 100% |  |  | 100%
17 | Cc1nc([C@H](C)NC(=O)c2cc(Cl)cc(S(=O)(=O)C(F)F)c2)n(-c2ncc(C#N)s2)n1 [I-158] | 90% | 100% | 100% |  |  | 
18 | C[C@H](NC(=O)c1cc(Cl)nc(C(F)(F)F)c1)c1ncnn1-c1ncc(C#N)s1 [I-168] | 100% | 100% | 100% |  |  | 

Row | SMILES | mortality at 500 g/ha [1] | mortality at 100 g/ha [2] | pest or weed control at 32 µg/disc, 100 g/ha [3] | mortality at 100 g/ha [4] | mortality at 100 g/ha [1] | pest or weed control at 5 µg/cm2 [5]
19 | C[C@H](NC(=O)c1cc(C(F)F)cc(S(=O)(=O)C2CC2)c1)c1ncnn1-c1ncc(C#N)s1 [I-51] | 100% | 100% |  | 90% | 100% | 
20 | Cc1nc([C@H](C)NC(=O)c2cc(OC(F)(F)F)cc(S(=O)(=O)C(F)F)c2)n(-c2ncc(C#N)s2)n1 [I-161] |  | 100% | 100% | 100% |  | 
21 | C[C@H](NC(=O)c1cc(Br)cc(OC(F)F)c1)c1ncnn1-c1ncc(C(=O)N(C)C)s1 [I-115] | 90% | 100% | 100% |  |  | 
22 | C[C@H](NC(=O)c1cc(Cl)cc(Cl)n1)c1ncnn1-c1ncc(C#N)s1 [I-167] | 100% |  | 100% |  |  | 
23 | C[C@H](NC(=O)c1cc(Cl)cc(C(F)(F)Br)c1)c1ncnn1-c1ncc(C#N)s1 [I-86] |  | 100% | 100% | 100% |  | 
24 | C[C@H](NC(=O)c1cc(OC(F)F)cc(S(=O)(=O)C(F)F)c1)c1ncnn1-c1ncc(C#N)s1 [I-136] | 100% | 100% | 100% |  | 100% | 
25 | C[C@H](NC(=O)c1cc(Cl)cc(OC(F)(F)F)c1)c1ncnn1-c1ncc(C(=O)N(C)C2CC2)s1 [I-155] |  | 100% | 100% | 90% |  | 
26 | C[C@H](NC(=O)c1cc(C2CC2)cc(C(C)(F)F)c1)c1ncnn1-c1ncc(C#N)s1 [I-95] |  | 100% | 100% | 100% |  | 
27 | C[C@H](NC(=O)c1cc(C(F)F)cc(C(F)F)c1)c1ncnn1-c1ncc(C(=O)N(C)C)s1 [I-117] | 100% |  |  |  | 100% | 
28 | C[C@H](NC(=O)c1cncc(OC(F)(F)F)c1)c1ncnn1-c1ncc(C#N)s1 [I-174] | 100% |  |  |  |  | 
29 | C[C@H](NC(=O)c1cc(OC(F)(F)F)cc(C2CC2)c1)c1ncnn1-c1ncc(C(=O)N(C)C2CC2)s1 [I-152] |  | 100% | 100% | 90% |  | 
30 | C[C@H](NC(=O)c1cc(Cl)cc(S(=O)(=O)c2ccc(Cl)cc2)c1)c1ncnn1-c1ncc(C#N)s1 [I-143] |  | 100% | 80% |  |  | 
31 | C[C@H](NC(=O)c1cc(OC(F)(F)F)cc(S(=O)(=O)C2CC2)c1)c1ncnn1-c1ncc(C#N)s1 [I-61] |  | 100% | 100% |  |  | 
32 | Cc1nc([C@H](C)NC(=O)c2cc(OC(F)(F)F)cc(S(=O)(=O)C3CC3)c2)n(-c2ncc(C#N)s2)n1 [I-164] |  | 100% | 100% |  |  | 
33 | C[C@H](NC(=O)c1cc(Br)cc(OC(F)F)c1)c1ncnn1-c1ncc(C(=O)N(C)C2CC2)s1 [I-154] |  | 100% | 100% | 90% |  | 
34 | C[C@H](NC(=O)c1cc(C2CC2)cc(S(=O)(=O)C(F)(F)F)c1)c1ncnn1-c1ncc(C#N)s1 [I-56] |  | 100% | 100% |  |  | 
35 | C[C@H](NC(=O)c1cc(C(F)(F)F)cc(C(F)(F)F)c1)c1ncnn1-c1ncc(C(=O)N(C)C2CC2)s1 [I-151] |  | 100% | 100% |  |  | 
36 | CNC(=O)c1cnc(-n2ncnc2[C@H](C)NC(=O)c2cc(OC(F)(F)F)cc(S(=O)(=O)C(F)F)c2)s1 [I-170] | 100% | 100% | 100% |  |  | 
